Columns and labels:
Factor 11 mRNA = Factor 11 mRNA in liver, FeCl3 induced venous thrombosis model vs Apixaban (Example 14); assay type: in vivo, BALB/c mice; conditions: for % inhibition of Factor 11 mRNA in liver relative to PBS control: FeCl3 VT model
Experimental: (§1) ISIS 404071 and Apixaban were evaluated in the FeCl3 induced VT mouse model. […] Two days after receiving the last dose of ISIS 404071, mice were anesthetized with 150 mg/kg ketamine mixed with 10 mg/kg xylazine administered by intraperitoneal injection. […] Twenty minutes after receiving Apixaban, mice were anesthetized with 150 mg/kg ketamine mixed with 10 mg/kg xylazine administered by intraperitoneal injection. […] Two days after the last dose of PBS, mice in both groups were anesthetized with 150 mg/kg ketamine mixed with 10 mg/kg xylazine administered by intraperitoneal injection. Thrombus formation was induced with FeCl3 in all of the mice except the first control group.
(§2) In mice undergoing FeCl3 treatment, thrombus formation was induced by applying a piece of filter paper (2×4 mm) pre-saturated with 10% FeCl3 solution directly on the vena cava. After 3 minutes of exposure, the filter paper was removed. Thirty minutes after the filter paper application, a fixed length of the vein containing the thrombus was dissected out for platelet analysis. Liver was collected for RNA analysis.
RNA was extracted from liver tissue for real-time PCR analysis of Factor 11. Results are presented as percent inhibition of Factor 11, relative to PBS control.

platelet factor-4 (PF-4) = assay: Thrombus formation by PF-4 real-time PCR, FeCl3 induced venous thrombosis model vs Apixaban (Example 14); assay type: in vivo, BALB/c mice; conditions: for PF-4 in vena cava, percentage as compared to PBS controls (thrombus formation): + FeCl3
Experimental: as §1, §2
Real-time PCR quantification of platelet factor-4 (PF-4) was used to quantify platelets in the vena cava as a measure of thrombus formation. […] Results are presented as a percentage of PF-4 in ISIS 404071 or Apixaban treated mice, as compared to the two PBS-treated control groups.

[1] = ISIS 404071 1.25 mg/kg subcutaneously twice a week for 3 weeks
[2] = ISIS 404071 5 mg/kg subcutaneously twice a week for 3 weeks
[3] = ISIS 404071 10 mg/kg subcutaneously twice a week for 3 weeks
[4] = ISIS 404071 25 mg/kg subcutaneously twice a week for 3 weeks
[5] = ISIS 404071 50 mg/kg subcutaneously twice a week for 3 weeks

ISIS 404071: antisense oligonucleotide targeted to murine Factor 11 mRNA, TGGTAATCCACTTTCAGAGG, target start site 869 (chemistry not given here)
Factor 11 mRNA in liver vs PBS control (Factor 11 mRNA; FeCl3 induced VT model, ISIS 404071 1.25-40 mg/kg, Apixaban 0.5-5 mg/kg s.c. once): significant dose-dependent reduction of Factor 11 mRNA
% inhibition of Factor 11 mRNA in liver relative to PBS control (Factor 11 mRNA; [1]): 15%
% inhibition of Factor 11 mRNA in liver relative to PBS control (Factor 11 mRNA; [2]): 63%
% inhibition of Factor 11 mRNA in liver relative to PBS control (Factor 11 mRNA; [3]): 76%
% inhibition of Factor 11 mRNA in liver relative to PBS control (Factor 11 mRNA; [4]): 91%
% inhibition of Factor 11 mRNA in liver relative to PBS control (Factor 11 mRNA; [5]): 95%
PF-4 in vena cava as measure of thrombus formation (platelet factor-4 (PF-4); FeCl3 induced VT model, vs PBS control): resulted in reduction of PF-4
PF-4 in vena cava, percentage as compared to PBS controls (thrombus formation) (platelet factor-4 (PF-4); [1]): 42%
PF-4 in vena cava, percentage as compared to PBS controls (thrombus formation) (platelet factor-4 (PF-4); [2]): 60%
PF-4 in vena cava, percentage as compared to PBS controls (thrombus formation) (platelet factor-4 (PF-4); [3]): 28%
PF-4 in vena cava, percentage as compared to PBS controls (thrombus formation) (platelet factor-4 (PF-4); [4]): 14%
PF-4 in vena cava, percentage as compared to PBS controls (thrombus formation) (platelet factor-4 (PF-4); [5]): 4%

Reference: patent publication US20230263822A1, “MODULATION OF FACTOR 11 EXPRESSION” (Ionis Pharmaceuticals, Inc., priority 2008, published 2023)
